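Protocol summary: plate cells (96-well), add compound at 5 concentrations, incubate 48 h, interpolate endpoints linearly. GI50 = concentration required for 50% inhibition of growth.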 Active and inactive are the calls of the source. Cut-off read from the data, not from the text of the source: active = GI50 up to about 1.1 µM and inactive = higher.
Experiments:
Test in all cases: NCI anticancer screen, dose series, 48 h
HOP-62 = system: HOP-62
OVCAR-4 = system: OVCAR-4
NCI-H460 = system: NCI-H460
SK-MEL-5 = system: SK-MEL-5
SNB-75 = system: SNB-75
MDA-N = system: MDA-N
RPMI-8226 = system: RPMI-8226
HCC 2998 = system: HCC 2998
MOLT-4 = system: MOLT-4
SK-OV-3 = system: SK-OV-3
HOP-92 = system: HOP-92
UACC-62 = system: UACC-62
NCI-H226 = system: NCI-H226
DU-145 = system: DU-145
COLO 205 = system: COLO 205
SF-295 = system: SF-295
NCI-H23 = system: NCI-H23
SW-620 = system: SW-620
NCI-H522 = system: NCI-H522
786-0 = system: 786-0

| SMILES | GI50 (HOP-62) | GI50 (OVCAR-4) | GI50 (NCI-H460) | GI50 (SK-MEL-5) | GI50 (SNB-75) | GI50 (MDA-N) | GI50 (RPMI-8226) | GI50 (HCC 2998) | GI50 (MOLT-4) | GI50 (SK-OV-3) | GI50 (HOP-92) | GI50 (UACC-62) | GI50 (NCI-H226) | GI50 (DU-145) | GI50 (COLO 205) | GI50 (SF-295) | GI50 (NCI-H23) | GI50 (SW-620) | GI50 (NCI-H522) | GI50 (786-0) |
| --- | --- | --- | --- | --- | --- | --- | --- | --- | --- | --- | --- | --- | --- | --- | --- | --- | --- | --- | --- | --- |
| N=C1OC(c2c[nH]c3ccc(OCc4ccccc4)cc23)C(O)=C1O (configuration not stated) | > 100 µM (inactive) | > 100 µM (inactive) | > 100 µM (inactive) | > 100 µM (inactive) | 29.2 µM (inactive) | > 100 µM (inactive) | > 100 µM (inactive) | 0.951 µM (active) | > 100 µM (inactive) | > 100 µM (inactive) | > 100 µM (inactive) | > 100 µM (inactive) | > 100 µM (inactive) | > 100 µM (inactive) | > 100 µM (inactive) | > 100 µM (inactive) | > 100 µM (inactive) | > 100 µM (inactive) | > 100 µM (inactive) | > 100 µM (inactive) |
| C/C(=N\N)C(CN(C)C)C(c1ccccc1)c1c(O)c2ccccc2oc1=O (configuration not stated) | > 100 µM (inactive) | > 65.6 µM (inactive) | > 100 µM (inactive) | > 100 µM (inactive) | > 42.4 µM (inactive) | > 100 µM (inactive) | 97.3 µM (inactive) | > 100 µM (inactive) | > 55.5 µM (inactive) | > 100 µM (inactive) | 25.2 µM (inactive) | > 73.6 µM (inactive) | > 100 µM (inactive) | > 100 µM (inactive) | > 100 µM (inactive) | > 86.3 µM (inactive) | > 100 µM (inactive) | > 100 µM (inactive) | > 94.4 µM (inactive) | > 100 µM (inactive) |
| O=c1cc(-c2ccccc2)oc2c1ccc1nc3ccccc3c(O)c12 | 88.1 µM (inactive) | 34.8 µM (inactive) | 14.7 µM (inactive) | 47.6 µM (inactive) | 34.9 µM (inactive) | > 100 µM (inactive) | 51.1 µM (inactive) | 62.8 µM (inactive) | 57.4 µM (inactive) | 43.7 µM (inactive) | > 100 µM (inactive) | 67.1 µM (inactive) | > 100 µM (inactive) | 61.2 µM (inactive) | > 100 µM (inactive) | 49.4 µM (inactive) | 89.1 µM (inactive) | > 100 µM (inactive) | 39.9 µM (inactive) | 42 µM (inactive) |
| Cc1ccc(CC(Cc2ccc(C)cc2C(=O)O)C(=O)O)cc1 (configuration not stated) | > 100 µM (inactive) | > 100 µM (inactive) | > 100 µM (inactive) | > 100 µM (inactive) | > 100 µM (inactive) | > 100 µM (inactive) | > 100 µM (inactive) | > 100 µM (inactive) | > 100 µM (inactive) | > 100 µM (inactive) | > 100 µM (inactive) | 43 µM (inactive) | > 100 µM (inactive) | > 100 µM (inactive) | > 100 µM (inactive) | > 100 µM (inactive) | > 100 µM (inactive) | > 100 µM (inactive) | > 100 µM (inactive) | > 100 µM (inactive) |
| CCC1=NC(N/N=C/c2ccccc2O)=N/C1=C\c1ccccc1O | 8.55 µM (inactive) | 5.6 µM (inactive) | 2.57 µM (inactive) | 19.5 µM (inactive) | 17.5 µM (inactive) | 17 µM (inactive) | 12.9 µM (inactive) | 10.2 µM (inactive) | 6.56 µM (inactive) | 12.4 µM (inactive) | 21.1 µM (inactive) | 9.79 µM (inactive) | 22.1 µM (inactive) | 18.2 µM (inactive) | 13.3 µM (inactive) | 7.69 µM (inactive) | 14.4 µM (inactive) | 7.5 µM (inactive) | 6.43 µM (inactive) | 6.76 µM (inactive) |
| C#C[C@]1(O)CC[C@H]2[C@@H]3CCC4=C/C(=N/OC(=O)c5cccc6c(=O)c7ccccc7[nH]c56)CC[C@@H]4[C@H]3CC[C@@]21C | > 100 µM (inactive) | > 100 µM (inactive) | 37.2 µM (inactive) | 20.2 µM (inactive) | 97.7 µM (inactive) | 43.2 µM (inactive) | 13.6 µM (inactive) | 50.5 µM (inactive) | 16.2 µM (inactive) | > 100 µM (inactive) | > 100 µM (inactive) | 35.6 µM (inactive) | 83.6 µM (inactive) | 61.9 µM (inactive) | 24.4 µM (inactive) | 92 µM (inactive) | 40.6 µM (inactive) | 56.2 µM (inactive) | 18.2 µM (inactive) | > 100 µM (inactive) |
| COc1cc([C@@H]2c3cc4c(cc3[C@@H](Nc3ccc([N+](=O)[O-])cc3C(=O)c3ccccc3)[C@H]3COC(=O)[C@H]23)OCO4)cc(OC)c1OC | 0.282 µM (active) | > 41.8 µM (inactive) | 0.258 µM (active) | 0.2 µM (active) | > 100 µM (inactive) | 0.0687 µM (active) | 0.394 µM (active) | 0.436 µM (active) | 0.306 µM (active) | 0.46 µM (active) | 8.05 µM (inactive) | 0.164 µM (active) | 0.726 µM (active) | 0.434 µM (active) | 0.293 µM (active) | 0.196 µM (active) | 0.428 µM (active) | 0.233 µM (active) | 0.16 µM (active) | 0.425 µM (active) |
| O=[N+]([O-])c1ccc(-c2ccc([C@H]3CC(c4cc(F)c(Cl)cc4Cl)=NN3)o2)cc1 | 17 µM (inactive) | 40.2 µM (inactive) | 0.435 µM (active) | 7.83 µM (inactive) | 15.1 µM (inactive) | 36.1 µM (inactive) | 20.9 µM (inactive) | 14.3 µM (inactive) | 1.95 µM (inactive) | 39.2 µM (inactive) | 26.6 µM (inactive) | 21.3 µM (inactive) | 21.9 µM (inactive) | 26.9 µM (inactive) | – | 44.2 µM (inactive) | 2.3 µM (inactive) | 23.6 µM (inactive) | 16.6 µM (inactive) | 23.7 µM (inactive) |
| O=C1CCC(CCc2nc3ccccc3[nH]2)(c2ccccc2)C(=O)N1 (configuration not stated) | > 100 µM (inactive) | > 100 µM (inactive) | > 100 µM (inactive) | > 100 µM (inactive) | 86.1 µM (inactive) | > 100 µM (inactive) | > 100 µM (inactive) | > 100 µM (inactive) | – | > 100 µM (inactive) | 83.6 µM (inactive) | > 100 µM (inactive) | > 100 µM (inactive) | > 100 µM (inactive) | > 100 µM (inactive) | > 100 µM (inactive) | > 100 µM (inactive) | > 100 µM (inactive) | 47.4 µM (inactive) | > 100 µM (inactive) |
| O=C(O)c1ccccc1.[Ag] | 21.3 µM (inactive) | 14.7 µM (inactive) | 11.1 µM (inactive) | 4.73 µM (inactive) | 3.36 µM (inactive) | 7.91 µM (inactive) | 2.23 µM (inactive) | 19.2 µM (inactive) | 2.55 µM (inactive) | 17.4 µM (inactive) | 21.7 µM (inactive) | 18.1 µM (inactive) | > 100 µM (inactive) | 17.5 µM (inactive) | 1.87 µM (inactive) | 64 µM (inactive) | 22.6 µM (inactive) | – | 1.5 µM (inactive) | 17.3 µM (inactive) |

Reference: ChEMBL document CHEMBL1201862, “PubChem BioAssay data set” (2004)
